Results taken from patent publication US9656981B2, “Peripherally-acting cannabinoid receptor agonists for chronic pain” (The Regents of the University of California, priority 2012, dated 2017).
Where two headings read alike, the source gives them in different places.

Key:
CB1R = CB1R (Homo sapiens, UniProt P21554); assay: CB1R radioligand displacement binding assay (CP55940 radioligand)
Experimental: Heterologous competition binding assays were performed to calculate receptor affinities. Unlabeled SR141716 or SR144528 were used as appropriate controls for non-specific binding (NSB) in the assay. Calculation of the equilibrium dissociation constant (Ki) was performed using the Cheng-Prusoff equation.

CB2R = CB2R (Homo sapiens, UniProt P34972); assay: CB2R radioligand displacement binding assay (CP55940 radioligand)
Experimental: Detailed radioligand displacement assays (using the well-characterized CBR agonist […] as the radioligand) were conducted to determine the affinity (Ki) of the test compounds for CB1R and CB2R as has been previously described by our group^112,113. Heterologous competition binding assays were performed to calculate receptor affinities. Unlabeled SR141716 or SR144528 were used as appropriate controls for non-specific binding (NSB) in the assay. Calculation of the equilibrium dissociation constant (Ki) was performed using the Cheng-Prusoff equation.

human CB1R (hCB1R) = human CB1R (hCB1R) (Homo sapiens, UniProt P21554); assay: human CB1R (hCB1R) calcium flux assay; assay type: cell-based; details: Table 1; read-out: Ca Flux % Emax
Excerpt: Compounds were first screened for: a) CB1R and CB2R binding, b) CB1R agonist activity using the human CB1R (hCB1R) calcium flux assay, and c) BBB permeability using the Madin-Darby canine kidney (MDCK-MDR1) cell line assay.
The calcium 3 dye assays were run according to manufacturer's specifications (http://www.moleculardevices.com/Products/Assay-Kits/GPCRs/FLIPR-Calcium.html) and as reported in our previous publications^112,113. Briefly, wells of black clear-bottom 96-well tissue culture-treated plates are seeded with 20,000 cells the afternoon before assay. The day of assay, the cells are incubated with the Ca^2+ indicator dye for 1 hr @ 37° C. For antagonist assays, the test compound is preincubated with the cells during the last 10 min of the dye incubation. Basal or unstimulated fluorescence intensity is recorded in the FlexStation @ 37° C. for 13 sec followed by the addition of test compound or CP 55,940 (depending on the assay endpoint). Fluorescence intensity is recorded for an additional 47 sec. The effect of test compound in each well is determined by subtracting the minimum from the maximum fluorescence during the 47-sec recording period.

[1] = tested on: sciatic nerve entrapment (SNE) neuropathy; assay: SNE neuropathy, mechanical allodynia (von Frey); assay type: in vivo, rat; details: 0.3 mg/kg; for effect on SNE-induced mechanical allodynia (ipsilateral hindpaw withdrawal thresholds): systemic injection
Experimental: The effectiveness of CBR agonists was tested for alleviating the painful symptoms of neuropathy induced by unilateral sciatic nerve entrapment (SNE)^131. The peripheral neuropathy induced by SNE is highly comparative to that of chronic constriction injury (CCI), which uses chromic gut suture materials instead of polyethylene cuffs^132. […] This increased excitability is at least in part attributable to injury-induced post-transcriptional transport of the voltage-gated sodium channel 1.8 (NaV1.8) mRNA, axonal accumulation of NaV1.8 mRNA, and its local protein translation leading to the increased NaV1.8 functional expression in injured nerve^136. The hyperexcitability and ectopic burst discharge of primary sensory neurons are widely considered to be the major contributors to pain symptomatology of peripheral neuropathy models. The SNE-induced mechanical allodynia effectively models the most common complaint of human neuropathy patients of dynamic mechanical allodynia. Behavioral measurements of mechanical sensitivity were conducted before and after induction of SNE as follows:
(§1) Rats are placed in a plastic-walled cage (10×20×13 cm) with a metal mesh floor (0.6×0.6 cm holes) and allowed to acclimate for 10 min. The amount of pressure (g) needed to evoke a hindpaw withdrawal response is measured 4 times on each paw separated by 30-s intervals using a von Frey-type digital meter (Model 1601C, IITC Instr.). Results of 4 tests/session are averaged for each paw.

rats [2] = assay: Catalepsy (ring) test of the tetrad; assay type: in vivo, rat
Experimental: Catalepsy (ring) test. Catalepsy was determined with a ring immobility test^154, modified for rats^139, 153. Rats are placed with their forepaws on a horizontal metal ring (12 cm diameter) at a height that allows their hindpaws to just touch the bench surface. Immobility is recorded as the time for the rat to move off the ring with a 100 s cutoff. Rats are tested before vehicle/drug injections and again at various times after injection.

rats [3] = assay: Hypothermia test of the tetrad; assay type: in vivo, rat
Experimental: Rats are acclimated to a plastic restrainer apparatus (Model RTV-180 Braintree Scientific Inc.) on the day of testing by placing them in the restrainer twice for 5 min separated by 20 min. Baseline core temperature is taken before treatment, and the rectal temperature is measured again at various times after injection of the CB1R ligands.

rats [4] = assay: Rotarod test of the tetrad; assay type: in vivo, rat
Experimental: Rats were tested for motor function and the ataxic effects of novel drugs as described previously^151-153. To determine drug effects on motor coordination, rats are trained 72 h before the test (3 sessions 24 h apart) to remain for at least 180 s on a rotarod revolving at an acceleration of 4-40 revs over 5 min). Rats are tested immediately before vehicle or drug injections and tested again at 2, 6, 24 and 48 hrs after injection. The time for which the rats are able to remain on the rotarod is recorded up to a cut-off of 5 min.

rats [5] = assay: Tail-flick test of the tetrad; assay type: in vivo, rat; details: 0.3 mg/kg, intraperitoneal
Excerpt: A modified Hargreaves apparatus (Model 390, IITC Instr.) is used to measure tail-flick latency (TFL). Radiant heat is directed to a point 3 cm from the tail tip and the TFL observed and timed with a photo cell counter. The intensity of the radiant heat is adjusted for a baseline TFL of approximately 5-7 seconds for naïve rats, with a 25 s cutoff set to avoid tissue damage (see FIG. 3).

[6] = tested on: CFA-induced mechanical allodynia; assay: CFA chronic inflammation, mechanical allodynia; assay type: in vivo, rat; details: systemic injection
Experimental: as §1
Compounds were tested in a well-established model of chronic inflammation. In this model, unilateral intraplantar injection of complete Freund's adjuvant (CFA) leads to long-lasting symptoms of mechanical allodynia and thermal hyperalgesia of the affected hindpaw, which is alleviated by local, […] administration of CB1R ligands^125, 155. […] This is consistent with the higher CB1R affinity of our novel compound 13339-145-35 (Compound 9, see Table 1) compared with the AstraZeneca AZ11713908 compound^125.

[7] = tested on: CFA-induced heat hyperalgesia; assay: CFA chronic inflammation, heat hyperalgesia (Hargreaves); assay type: in vivo, rat; details: systemic injection
Experimental: The Hargreaves method was used to assess paw-withdrawal latency to a thermal nociceptive stimulus^175. Rats were acclimated (10 min) within Plexiglas enclosures (10×20×20 cm) on a clear glass plate preheated to 30° C. A radiant heat source (adjustable infrared lamp) and a timer were used to measure paw withdrawal latency (Model 390, IITC Instruments). Each paw was tested 4 times at 30% maximal intensity allowing 5 min between each test. […] Results of 4 tests were averaged for each paw for that session.

rats [8] = assay: Tetrad assays overall (CNS-mediated side effects); assay type: in vivo, rat; details: doses effective against neuropathy symptoms, i.p.
Excerpt: The CNS-mediated psychotropic actions of CB1R ligands represent their most troubling side effects. The cannabinoid agonists such as Δ9-THC or anandamide produce a complex pattern of behavioral effects which are unique to this class of compounds: at low doses a mixture of stimulatory and depressant effects is observed, while at higher doses central depression predominates^137,138. The tetrad of tests which is classically predictive of cannabinoid receptor activation includes: catalepsy, motor performance, hypothermia, and analgesia tests^139-141. Effects observed in all four tests have been thought to be mediated by the activation of central CBRs, but it is now well established that peripheral CBRs make a major contribution to the analgesic effects of cannabinoids^142-144. The catalepsy and motor deficits induced by CB1R ligands are likely produced by their action on CB1Rs within the basal ganglia and cerebellum, while hypothermia is thought to be mediated mainly through hypothalamic and brainstem CB1Rs^137, 145-150. […] Therefore, “tetrad” tests were used to determine whether the novel CB1R ligands have antinociceptive effects and side-effect profile consistent with the activation of central CB1Rs. […]

Plasma stability assay = assay type: in vitro ADME; details: 30 min; rat plasma, 10 μM
Experimental: Compounds are incubated at 10 μM in rat plasma at 37° C. A solution of each compound is prepared in ethanol at a concentration of 1 mM. A 2.5 μL volume of the 1 mM solution is added to 247.5 μL of rat plasma (male Sprague Dawley) in a glass test tube in a 37° C. water bath. Samples (50 μL) are removed at 0, 30 and 60 min and immediately extracted with 3 volumes (150 μL) of methanol. Samples are centrifuged (2500 rpm for 10 min at 4° C.) to pellet protein and supernatants transferred to LC/MS vials for analysis. Samples are stored at −80° C. prior to analysis.

[9] = S9 fraction stability assay; assay type: in vitro ADME; details: 30 min; rat liver S9, 10 μM
Experimental: Compounds are incubated at 10 μM in rat (male Sprague Dawley) liver S9 at 37° C. Each compound is prepared in ethanol at a concentration of 1 mM. An assay mixture containing S9 (1 mg protein/mL final concentration) and an NADPH regenerating system (NADP [1 mM final], glucose 6-phosphate [5 mM final] and glucose 6-phosphate dehydrogenase [1 U/mL final]) in a buffer consisting of 50 mM KPO4 phosphate buffer, pH 7.4 with 3 mM MgCl2 is prepared and preincubated at 37° C. for 5 min. A 10 μL volume of the 1 mM solution is added to 990 μL of assay mixture in a glass test tube @ 37° C. to initiate the assay. Samples (50 μL) are removed at 0, 15, 30, 60 and 120 min and immediately extracted with 3 volumes (150 μL) of methanol, centrifuged to pellet protein and supernatants transferred to LC/MS vials for analysis.

Chain of CB1R (P21554 whole entry): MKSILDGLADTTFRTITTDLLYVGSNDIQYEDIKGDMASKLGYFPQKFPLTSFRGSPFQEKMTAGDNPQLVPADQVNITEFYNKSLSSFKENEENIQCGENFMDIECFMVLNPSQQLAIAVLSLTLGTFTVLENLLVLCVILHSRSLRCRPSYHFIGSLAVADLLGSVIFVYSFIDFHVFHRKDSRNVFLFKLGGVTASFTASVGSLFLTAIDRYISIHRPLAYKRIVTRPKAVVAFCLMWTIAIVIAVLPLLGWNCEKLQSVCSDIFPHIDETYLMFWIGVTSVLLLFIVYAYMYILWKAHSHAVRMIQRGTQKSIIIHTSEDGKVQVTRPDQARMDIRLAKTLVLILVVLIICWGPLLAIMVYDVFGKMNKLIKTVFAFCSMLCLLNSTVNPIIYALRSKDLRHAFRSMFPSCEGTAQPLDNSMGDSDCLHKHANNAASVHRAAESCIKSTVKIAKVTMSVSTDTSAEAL
Chain of human CB1R (hCB1R) (P21554 whole entry): as above
Chain of CB2R (P34972 whole entry): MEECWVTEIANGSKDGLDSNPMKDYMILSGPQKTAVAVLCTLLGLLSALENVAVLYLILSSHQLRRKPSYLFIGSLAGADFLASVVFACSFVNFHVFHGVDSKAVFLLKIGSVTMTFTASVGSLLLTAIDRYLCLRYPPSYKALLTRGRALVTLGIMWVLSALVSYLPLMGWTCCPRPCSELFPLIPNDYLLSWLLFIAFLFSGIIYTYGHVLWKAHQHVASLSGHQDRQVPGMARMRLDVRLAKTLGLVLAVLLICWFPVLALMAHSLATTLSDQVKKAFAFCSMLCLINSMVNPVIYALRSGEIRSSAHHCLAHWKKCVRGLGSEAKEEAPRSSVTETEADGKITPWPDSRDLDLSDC

For `COc1ccc(/C=C2\C=C(CCN3CCOCC3)c3ccccc32)c2ccccc12` [Compound 10, 4-{2-[(1E)-2-[(4-methoxy-naphthalen-1-yl)methylidene]-1H-inden-3-yl]ethyl} morpholine], the Ki (CB1R) was 2.4 nM, the Ki (CB1R; Table 1, CP55940 radioligand, read-out: CB1_KI_CP) was 2.43 nM and the Ki (CB2R) was 4.17 nM. For the same compound, the Emax (human CB1R (hCB1R)) was 114%, the “effect on SNE-induced mechanical allodynia (ipsilateral hindpaw withdrawal thresholds)” value [1] was “anti-allodynic effects” and the “SNE Neuropath Assay-% return to pre-drug (0.3 mg/kg) contralateal threshold at 2-3 h” value [1] was 103.2%. For the same compound, the “Catalepsy % change from pre-drug (0.3 mg/kg) at 1-3 hrs” value (rats [2]) was 0%, the “effect in the hypothermia assay” value (rats [3]; 0.3 mg/kg, intraperitoneal) was “small difference” and the “Hypothermia % change from predrug (0.3 mg/kg) at 2-3 hr” value (rats [3]) was 0%. For the same compound, the “Rotarod % change from pre-drug (0.3 mg/kg) at 2-3 hr” value (rats [4]) was 0%, the “effect in the tail-flick assay” value (rats [5]) was “small, but significant effects” and the “effect on CFA-induced mechanical allodynia” value [6] was “relatively small effect”. For the same compound, the “effect on CFA-induced heat hyperalgesia” value [7] was “robust relief”.
In the case of `CCCCCCC(C)(C)c1cc(O)c2c(c1)OC(C)(C)[C@@H]1CC=C(CO)C[C@@H]21` [HU-210], the “CNS side effects in the tetrad assays” value (rats [8]) is reported as “potent CNS side effects”.
For `C1=C(CCN2CCOCC2)c2ccccc2/C1=C/c1cccc2ccccc12` [Compound 11, 4-{2-[(1E)-1-(naphthalen-1-ylmethylidene)-1H-inden-3-yl]ethyl} morpholine], the Ki (CB1R; read-out: CB1R binding affinity (Ki)) was 4.69 nM, the Ki (CB2R; Table 1, CP55940 radioligand, read-out: CB2_KI_CP) was 5.62 nM and the Emax (human CB1R (hCB1R)) was 103%. For the same compound, the “Plasma % remaining @ xy min” value (Plasma stability assay) was 95 @ 30%, the “S9% remaining @ xy min” value [9] was 35 @ 30% and the “effect on SNE-induced mechanical allodynia (ipsilateral hindpaw withdrawal thresholds)” value [1] was “anti-allodynic effects”. For the same compound, the “SNE Neuropath Assay-% return to pre-drug (0.3 mg/kg) contralateal threshold at 2-3 h” value [1] was 37.8%, the “effect on contralateral hindpaw withdrawal thresholds” value ([1]; hindpaw contralateral to SNE) was “Neither ENMI nor 13339-135-25 had any significant effect” and the “effect in the catalepsy assay” value (rats [2]; 0.3 mg/kg, intraperitoneal) was “complete lack of effects”. For the same compound, the “Catalepsy % change from pre-drug (0.3 mg/kg) at 1-3 hrs” value (rats [2]) was 0%, the “Hypothermia % change from predrug (0.3 mg/kg) at 2-3 hr” value (rats [3]) was 0% and the “effect in the rotarod assay” value (rats [4]; 0.3 mg/kg, intraperitoneal) was “complete lack of effects”. The “Rotarod % change from pre-drug (0.3 mg/kg) at 2-3 hr” value (rats [4]) was 0%.
